Earlier results in patent publication US7205279B2, “Pharmaceutical compositions” (Novartis AG, priority 1995, dated 2007).

Details: room temperature

solubility in water: 8.5 g per 100 ml
SMILES: CCOC(C)=O [Ethyl acetate]
